The source of these data is patent US20240101540A1, “TARGETED PROTEIN DEGRADATION OF PARP14 FOR USE IN THERAPY” (Ribon Therapeutics, Inc., priority 2022, published 2024).

Where a name gives a salt, the structure may show the parent alone.

In this assay the target is T1, HiBiT tagged PARP14 (Homo sapiens, UniProt Q460N5).
T1 construct: engineered to contain a HiBiT tag on both alleles of the PARP14 gene; endogenous in cells; host or cells: Jurkat cells stably transfected with LgBiT (Promega), PARP14 locus edited by CRISPR/Cas9
T1 sequence (Q460N5 whole entry): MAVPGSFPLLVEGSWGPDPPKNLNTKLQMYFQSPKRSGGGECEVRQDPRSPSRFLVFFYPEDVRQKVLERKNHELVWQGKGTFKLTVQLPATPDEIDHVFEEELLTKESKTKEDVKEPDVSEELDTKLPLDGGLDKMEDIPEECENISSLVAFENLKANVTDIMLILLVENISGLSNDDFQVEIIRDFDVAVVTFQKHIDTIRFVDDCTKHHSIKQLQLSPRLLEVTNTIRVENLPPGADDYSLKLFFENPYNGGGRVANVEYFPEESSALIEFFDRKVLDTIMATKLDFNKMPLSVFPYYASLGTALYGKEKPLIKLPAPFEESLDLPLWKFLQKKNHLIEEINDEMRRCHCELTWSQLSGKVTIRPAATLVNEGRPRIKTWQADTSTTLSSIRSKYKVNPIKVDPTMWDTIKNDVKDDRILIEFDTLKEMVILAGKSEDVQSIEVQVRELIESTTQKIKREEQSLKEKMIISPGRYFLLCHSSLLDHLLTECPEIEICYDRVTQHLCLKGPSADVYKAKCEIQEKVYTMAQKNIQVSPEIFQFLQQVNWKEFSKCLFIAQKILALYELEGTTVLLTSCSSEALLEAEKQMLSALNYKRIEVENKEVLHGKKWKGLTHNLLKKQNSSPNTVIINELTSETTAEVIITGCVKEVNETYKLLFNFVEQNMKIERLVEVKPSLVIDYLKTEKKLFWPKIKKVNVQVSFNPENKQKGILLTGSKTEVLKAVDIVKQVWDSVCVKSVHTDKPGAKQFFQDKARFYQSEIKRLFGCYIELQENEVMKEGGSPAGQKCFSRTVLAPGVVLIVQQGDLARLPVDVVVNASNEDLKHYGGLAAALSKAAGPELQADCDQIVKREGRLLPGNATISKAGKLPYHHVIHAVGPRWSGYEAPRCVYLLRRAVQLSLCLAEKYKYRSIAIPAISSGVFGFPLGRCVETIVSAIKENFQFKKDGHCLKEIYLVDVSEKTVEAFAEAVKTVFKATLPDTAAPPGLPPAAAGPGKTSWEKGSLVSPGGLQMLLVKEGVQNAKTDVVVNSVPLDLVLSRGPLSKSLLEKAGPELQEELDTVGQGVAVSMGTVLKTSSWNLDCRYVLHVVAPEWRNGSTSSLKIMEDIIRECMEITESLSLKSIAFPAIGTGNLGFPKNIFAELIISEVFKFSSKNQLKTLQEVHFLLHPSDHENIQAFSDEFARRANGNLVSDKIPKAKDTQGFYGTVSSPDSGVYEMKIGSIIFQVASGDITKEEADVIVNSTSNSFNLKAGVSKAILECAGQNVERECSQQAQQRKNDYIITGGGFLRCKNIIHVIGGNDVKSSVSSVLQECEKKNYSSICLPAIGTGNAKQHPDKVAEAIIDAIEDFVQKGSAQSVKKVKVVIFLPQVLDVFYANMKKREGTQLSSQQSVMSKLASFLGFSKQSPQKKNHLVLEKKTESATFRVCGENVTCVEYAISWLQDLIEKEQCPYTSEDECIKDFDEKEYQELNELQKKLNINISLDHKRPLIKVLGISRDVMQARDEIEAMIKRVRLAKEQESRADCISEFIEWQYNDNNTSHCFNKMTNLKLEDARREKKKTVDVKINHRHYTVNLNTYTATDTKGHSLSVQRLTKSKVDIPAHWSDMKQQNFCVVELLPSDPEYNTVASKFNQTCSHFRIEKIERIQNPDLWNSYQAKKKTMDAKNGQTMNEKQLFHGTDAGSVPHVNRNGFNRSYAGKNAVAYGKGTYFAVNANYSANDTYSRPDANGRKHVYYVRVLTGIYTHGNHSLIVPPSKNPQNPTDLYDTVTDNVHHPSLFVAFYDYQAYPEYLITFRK
The assay can be described thus: HiBiT assay for the degradation of PARP14 (HiBiT tagged PARP14 in LgBiT expressing Jurkat cells, 2 or 24 hours). The conditions noted are these: Assay B (Example B): HiBiT tagged PARP14 degradation in LgBiT expressing Jurkat cells, read-out: DC50. It is filed as cell-based. An outline of the steps: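 Jurkat cells stably expressing LgBiT with CRISPR knock-in of C-terminal HiBiT on both PARP14 alleles, 5,000 cells/well, treated with compound dose-response at 37 °C for 2 or 24 h. Live Cell Substrate luminescence normalised to 0.1% DMSO wells; DC50 from 4-parameter fit with floating top, bottom, Hill.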
For the compound `O=C1CCC(Nc2ccc(N3CCN(CCN4CCC(COc5cc(F)c6c(=O)[nH]c(CSC7CCOCC7)nc6c5)CC4)CC3)cn2)C(=O)N1` (stereo not shown) [Example 119], the DC50 was less than 30 nM.

For the compound `O=C1CCC(NC(=O)C23CC(N4CCN(CCN5CCC(COc6cc(F)c7c(=O)[nH]c(CSC8CCOCC8)nc7c6)CC5)CC4)(C2)C3)C(=O)N1` (stereo not shown) [Example 134, N-(2,6-dioxopiperidin-3-yl)-3-(4-(2-(4-(((5-fluoro-4-oxo-2-(((tetrahydro-2H-pyran-4-yl)thio)methyl)-3,4-dihydroquinazolin-7-yl)oxy)methyl)piperidin-1-yl)ethyl)piperazin-1-yl)bicyclo[1.1.1]pentane-1-carboxamide], the 50% degradation concentration (DC50) was less than 30 nM. As to `O=C1CCC(Nc2ccc(N3CCC(N4CC(CC(=O)N5CCC(COc6cc(F)c7c(=O)[nH]c(CSC8CCOCC8)nc7c6)CC5)C4)CC3)c(F)c2)C(=O)N1` (stereo not shown) [Example 179, 3-((3-fluoro-4-(4-(3-(2-(4-(((5-fluoro-4-oxo-2-(((tetrahydro-2H-pyran-4-yl)thio)methyl)-3,4-dihydroquinazolin-7-yl)oxy)methyl)piperidin-1-yl)-2-oxoethyl)azetidin-1-yl)piperidin-1-yl)phenyl)amino)piperidine-2,6-dione], the DC50 was less than 30 nM. The result for `COc1cc(N2CCC(CN3CCC(COc4cc(F)c5c(=O)[nH]c(CSC6CCOCC6)nc5c4)CC3)CC2)c(F)cc1NC1CCC(=O)NC1=O` (stereo not shown) [Example 229, 3-((5-fluoro-4-(4-((4-(((5-fluoro-4-oxo-2-(((tetrahydro-2H-pyran-4-yl)thio)methyl)-3,4-dihydroquinazolin-7-yl)oxy)methyl)piperidin-1-yl)methyl)piperidin-1-yl)-2-methoxyphenyl)amino)piperidine-2,6-dione] reads less than 30 nM; that for `O=C1CCC(Nc2ccc(N3CCC4(CC3)CC(N3CCC(COc5cc(F)c6c(=O)[nH]c(CSC7CCOCC7)nc6c5)CC3)C4)cc2)C(=O)N1` (stereo not shown) [Example 128], less than 30 nM. As for `O=C1CCC(Nc2ccc(N3CCC(N4CC(N5CCC(COc6cc(F)c7c(=O)[nH]c(COC8CCOCC8)nc7c6)CC5)C4)CC3)c(F)c2)C(=O)N1` (single isomer, unassigned) [Example 136b, 3-((3-fluoro-4-(4-(3-(4-(((5-fluoro-4-oxo-2-(((tetrahydro-2H-pyran-4-yl)oxy)methyl)-3,4-dihydroquinazolin-7-yl)oxy)methyl)piperidin-1-yl)azetidin-1-yl)piperidin-1-yl)phenyl)amino)piperidine-2,6-dione], the DC50 was less than 30 nM. Under `O=C1CCN(c2ccc(N3CCC(N4CC(N5CCC(COc6cc(F)c7c(=O)[nH]c(CSC8CCOCC8)nc7c6)CC5)C4)CC3)c(F)c2)C(=O)N1` [Example 157, 1-(3-fluoro-4-(4-(3-(4-(((5-fluoro-4-oxo-2-(((tetrahydro-2H-pyran-4-yl)thio)methyl)-3,4-dihydroquinazolin-7-yl)oxy)methyl)piperidin-1-yl)azetidin-1-yl)piperidin-1-yl)phenyl)dihydropyrimidine-2,4(1H,3H)-dione] stands less than 30 nM.

With `O=C1CCC(Nc2ccc(N3CCN(CCN4CCC(COc5cc(F)c6c(=O)[nH]c(CC7CC7)nc6c5)CC4)CC3)c(F)c2)C(=O)N1` (stereo not shown) [Example 105, 3-((4-(4-(2-(4-(((2-(cyclopropylmethyl)-5-fluoro-4-oxo-3,4-dihydroquinazolin-7-yl)oxy)methyl)piperidin-1-yl)ethyl)piperazin-1-yl)-3-fluorophenyl)amino)piperidine-2,6-dione formate], the DC50 is less than 30 nM. On to `O=C1CCC(Nc2ccc3c(c2)CN(CCN2CCC(COc4cc(F)c5c(=O)[nH]c(CSC6CCOCC6)nc5c4)CC2)C3)C(=O)N1` (stereo not shown) [Example 92, 3-((2-(2-(4-(((5-fluoro-4-oxo-2-(((tetrahydro-2H-pyran-4-yl)thio)methyl)-3,4-dihydroquinazolin-7-yl)oxy)methyl)piperidin-1-yl)ethyl)isoindolin-5-yl)amino)piperidine-2,6-dione], for which the DC50 was less than 30 nM. As to `O=C1CCC(Nc2ccc(N3CCN(CCN4CCC(COc5cc(F)c6c(=O)[nH]c(COC7CCOCC7)nc6c5)CC4)CC3)c(F)c2)C(=O)N1` (single isomer, unassigned) [Example 99a, 3-((3-fluoro-4-(4-(2-(4-(((5-fluoro-4-oxo-2-(((tetrahydro-2H-pyran-4-yl)oxy)methyl)-3,4-dihydroquinazolin-7-yl)oxy)methyl)piperidin-1-yl)ethyl)piperazin-1-yl)phenyl)amino)piperidine-2,6-dione], the DC50 is less than 30 nM.

For `O=C1CCC(Nc2ccc(N3CCC(N4CC(N5CCC(COc6cc(F)c7c(=O)[nH]c(CCC8CCOCC8)nc7c6)CC5)C4)CC3)c(F)c2)C(=O)N1` (stereo not shown) [Example 146, 3-((3-fluoro-4-(4-(3-(4-(((5-fluoro-4-oxo-2-(2-(tetrahydro-2H-pyran-4-yl)ethyl)-3,4-dihydroquinazolin-7-yl)oxy)methyl)piperidin-1-yl)azetidin-1-yl)piperidin-1-yl)phenyl)amino)piperidine-2,6-dione formate], the DC50 was less than 30 nM.

Regarding `O=C1CCN(c2ccc(N3CCC(CN4CCC(COc5cc(F)c6c(=O)[nH]c(COC7CCOCC7)nc6c5)CC4)CC3)c(F)c2)C(=O)N1` [Example 180, 1-(3-fluoro-4-(4-((4-(((5-fluoro-4-oxo-2-(((tetrahydro-2H-pyran-4-yl)oxy)methyl)-3,4-dihydroquinazolin-7-yl)oxy)methyl)piperidin-1-yl)methyl)piperidin-1-yl)phenyl)dihydropyrimidine-2,4(1H,3H)-dione], the DC50 was less than 30 nM.

As for `O=C1CCC(Nc2ccc(OC3CC(CN4CCC(COc5cc(F)c6c(=O)[nH]c(CCC7CCOCC7)nc6c5)CC4)C3)cc2)C(=O)N1` (stereo not shown) [Example 110], the DC50 is less than 30 nM. Under `COc1cc(N2CCC(N3CC(N4CCC(COc5cc(F)c6c(=O)[nH]c(CSC7CCOCC7)nc6c5)CC4)C3)CC2)c(F)cc1NC1CCC(=O)NC1=O` (stereo not shown) [Example 139] stands less than 30 nM; under `O=C1CCN(c2ccc(N3CCC(N4CCC(COc5cc(F)c6c(=O)[nH]c(CSC7CCOCC7)nc6c5)CC4)CC3)c(F)c2)C(=O)N1` [Example 158, 1-(3-fluoro-4-(4-(((5-fluoro-4-oxo-2-(((tetrahydro-2H-pyran-4-yl)thio)methyl)-3,4-dihydroquinazolin-7-yl)oxy)methyl)-[1,4′-bipiperidin]-1′-yl)phenyl)dihydropyrimidine-2,4(1H,3H)-dione formate], less than 30 nM.

For `O=C1CCC(Nc2ccc(N3CCN(CCN4CCC(COc5cc(F)c6c(=O)[nH]c(CSC7CCOCC7)nc6c5)CC4)CC3)cc2F)C(=O)N1` (stereo not shown) [Example 97, 3-((2-fluoro-4-(4-(2-(4-(((5-fluoro-4-oxo-2-(((tetrahydro-2H-pyran-4-yl)thio)methyl)-3,4-dihydroquinazolin-7-yl)oxy)methyl)piperidin-1-yl)ethyl)piperazin-1-yl)phenyl)amino)piperidine-2,6-dione], the half-maximal degradation concentration (DC50) is less than 30 nM. For `O=C1CCC(Nc2ccc(N3CCN(CCN4CCC(COc5cc(F)c6c(=O)[nH]c(CCC7CCOCC7)nc6c5)CC4)CC3)cc2F)C(=O)N1` (stereo not shown) [Example 216, 3-((2-fluoro-4-(4-(2-(4-(((5-fluoro-4-oxo-2-(2-(tetrahydro-2H-pyran-4-yl)ethyl)-3,4-dihydroquinazolin-7-yl)oxy)methyl)piperidin-1-yl)ethyl)piperazin-1-yl)phenyl)amino)piperidine-2,6-dione], the 50% degradation concentration (DC50) is less than 30 nM.

Turning to `O=C1CCC(Nc2ccc(N3CC(N4CCC(N5CCC(COc6cc(F)c7c(=O)[nH]c(CSC8CCOCC8)nc7c6)CC5)CC4)C3)c(F)c2)C(=O)N1` (stereo not shown) [Example 145], the 50% degradation concentration (DC50) was less than 30 nM. On to `O=C1CCC(Nc2ccc(N3CCC(N4CCC(COc5cc(F)c6c(=O)[nH]c(CCC7CCOCC7)nc6c5)CC4)CC3)c(F)c2)C(=O)N1` (single isomer, unassigned) [Example 117a, 3-((3-fluoro-4-(4-(((5-fluoro-4-oxo-2-(2-(tetrahydro-2H-pyran-4-yl)ethyl)-3,4-dihydroquinazolin-7-yl)oxy)methyl)-[1,4′-bipiperidin]-11′-yl)phenyl)amino)piperidine-2,6-dione], for which the DC50 is less than 30 nM. With `O=C1CCC(Nc2ccc(N3CCC(N4CCC(COc5cc(F)c6c(=O)[nH]c(CSC7CCOCC7)nc6c5)CC4)CC3)cc2F)C(=O)N1` (stereo not shown) [Example 222, 3-((2-fluoro-4-(4-(((5-fluoro-4-oxo-2-(((tetrahydro-2H-pyran-4-yl)thio)methyl)-3,4-dihydroquinazolin-7-yl)oxy)methyl)-[1,4′-bipiperidin]-1′-yl)phenyl)amino)piperidine-2,6-dione], the half-maximal degradation concentration (DC50) was less than 30 nM.

`CN(c1ccc(NC2CCC(=O)NC2=O)cc1F)C1CC(CN2CCC(COc3cc(F)c4c(=O)[nH]c(CSC5CCOCC5)nc4c3)CC2)C1` (stereo not shown) [Example 147, 3-((3-fluoro-4-((3-((4-(((5-fluoro-4-oxo-2-(((tetrahydro-2H-pyran-4-yl)thio)methyl)-3,4-dihydroquinazolin-7-yl)oxy)methyl)piperidin-1-yl)methyl)cyclobutyl)(methyl)amino)phenyl)amino)piperidine-2,6-dione]: the DC50 was less than 30 nM.

Regarding `O=C1CCC(Nc2cc(F)c(N3CCC(N4CC(N5CCC(COc6cc(F)c7c(=O)[nH]c(CSC8CCOCC8)nc7c6)CC5)C4)CC3)cc2F)C(=O)N1` (stereo not shown) [Example 218, 3-((2,5-difluoro-4-(4-(3-(4-(((5-fluoro-4-oxo-2-(((tetrahydro-2H-pyran-4-yl)thio)methyl)-3,4-dihydroquinazolin-7-yl)oxy)methyl)piperidin-1-yl)azetidin-1-yl)piperidin-1-yl)phenyl)amino)piperidine-2,6-dione], the DC50 is less than 30 nM.
